Patent US20260206755A1, “COMPOUNDS AND COMPOSITIONS HAVING KNOCK-DOWN OR BLOOD FEED INHIBITION ACTIVITY AGAINST INSECT PESTS” (priority 2017, published 2026)

Test system: Anopheles stephensi
Test: Anopheles stephensi treated well plate contact test: knockdown and mortality
Type: in vivo
Conditions: for mortality % 24, with TFNA-AM / mortality % 24, without TFNA-AM: after 24 hours; for mortality % 48, with TFNA-AM / mortality % 48, without TFNA-AM: after 48 hours; for Knock Down, with TFNA-AM / Knock Down, without TFNA-AM: knockdown after 1 hour
How it was run: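 Well surfaces coated with ethanol solution of compound at a defined concentration, alone or with 2 ppm TFNA-AM, then dried. Five non-blood-fed 2–5-day-old adult females per well, fed 10% sucrose; knockdown scored at 1 hour, mortality at 24 and 48 hours, replicate means reported.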

[1] = test compound 0.2 ppm plus 2 ppm TFNA-AM
[2] = test compound 2 ppm plus 2 ppm TFNA-AM
[3] = test compound 20 ppm plus 2 ppm TFNA-AM
[4] = test compound 200 ppm plus 2 ppm TFNA-AM

For Spinosad, the “mortality % 24, with TFNA-AM” value [1] was 80%, the “mortality % 48, with TFNA-AM” value [1] was 100% and the “Knock Down, with TFNA-AM” value [1] was 100%. The “mortality % 24, without TFNA-AM” value (test compound 0.2 ppm) was 0%, the “mortality % 48, without TFNA-AM” value (test compound 0.2 ppm) was 0% and the “Knock Down, without TFNA-AM” value (test compound 0.2 ppm) was 40%. For the same substance, the “mortality % 24, with TFNA-AM” value [2] was 100%, the “mortality % 48, with TFNA-AM” value [2] was 100% and the “Knock Down, with TFNA-AM” value [2] was 100%. For the same substance, the “mortality % 24, without TFNA-AM” value (test compound 2 ppm) was 0%, the “mortality % 48, without TFNA-AM” value (test compound 2 ppm) was 0% and the “Knock Down, without TFNA-AM” value (test compound 2 ppm) was 40%. The “mortality % 24, with TFNA-AM” value [3] was 100%, the “mortality % 48, with TFNA-AM” value [3] was 80% and the “Knock Down, with TFNA-AM” value [3] was 100%. For the same substance, the “mortality % 24, without TFNA-AM” value (test compound 20 ppm) was 0%, the “mortality % 48, without TFNA-AM” value (test compound 20 ppm) was 0% and the “Knock Down, without TFNA-AM” value (test compound 20 ppm) was 40%. For the same substance, the “mortality % 24, with TFNA-AM” value [4] was 100%, the “mortality % 48, with TFNA-AM” value [4] was 100% and the “Knock Down, with TFNA-AM” value [4] was 100%. The “mortality % 24, without TFNA-AM” value (test compound 200 ppm) was 40%, the “mortality % 48, without TFNA-AM” value (test compound 200 ppm) was 40% and the “Knock Down, without TFNA-AM” value (test compound 200 ppm, adult females) was 60%.
